Measurements: US20080286215A1, “Method of Preventing Oral Staining” (priority 2005, published 2008)
Read-outs that look alike come from different tables or passages of the source.

How the values were obtained:
[1] = seven-day twice-daily mouthwash swilling, staining of teeth and tongue; format: in vivo; conditions: 0.2% mouthwash swilled twice daily for seven days
Description: FIG. 1 panel B illustrates staining of the teeth caused when contacted over a seven-day period with Chlorhexidine 0.2% twice daily for one minute (panel A is a control showing seven days rinsing with Delmopinol 0.2% twice daily 10 ml for one minute);
FIG. 2 panel B illustrates staining of the tongue when contacted over a seven day period with Chlorhexidine 0.2% twice daily for one minute (panel A is a control showing seven days rinsing with Delmopinol 0.2% twice daily 10 ml for one minute); and
A subject swilled their mouth twice daily with a 0.2% chlorhexidine mouthwash for seven days.
As a separate control, the subject swilled their mouth twice daily with a 0.2% delmopinol mouthwash for seven days.

[2] = removal of chlorhexidine staining by a single one-minute brushing of the teeth; format: in vivo; conditions: subject with staining after seven days of chlorhexidine, brushed once, toothbrush soaked in 0.2% mouthwash
Text: FIG. 3 illustrates the removal of Chlorhexidine stains seen in FIG. 1(B) by brushing the teeth for one minute with a toothbrush that has been soaked in 0.2% delmopinol. The subject with chlorhexidine staining (after the seven day usage of chlorhexidine) brushed their teeth once, for one minute, using a toothbrush soaked in a 0.2% delmopinol mouthwash.

[3] = prolonged use, some subjects, noticed by dentists in some studies; cited from earlier work

Structure (SMILES)	staining of the teeth [1]	staining of the tongue [1]	removal of chlorhexidine staining of the teeth [2]	staining of the teeth [3]
[H]/N=C(\N/C(=N/[H])NCCCCCCNC(=N)NC(=N)Nc1ccc(Cl)cc1)Nc1ccc(Cl)cc1 [chlorhexidine, reference compound]	characteristic staining of the teeth	the tongue was also stained		
CCCC(CCC)CCCC1COCCN1CCO (stereo not drawn) [delmopinol, 3-(4-propyl-heptyl)-4-(2-hydroxyethyl)morpholine]	No staining was observed	No staining was observed	removed the staining of the teeth	mild staining of the teeth
